{"source": "patent US20170151299A1", "about": "“EXTRACTS OF SANTOLINA CHAMAECYPARISSUS” (priority 2014, published 2017)", "key": {"[1]": {"test_system": "Propionibacterium acnes", "assay": "Minimum inhibitory concentration (MIC)", "assay_type": "cell-based", "conditions": "Cutibacterium acnes; Propionibacterium acnes (anaerobic); read-out: MIC (mg/mL) P. acnes", "protocol": "In a second step for the optimized extract of S. chamaecyparissus, the minimum inhibitory concentration (MIC) and the minimum bactericidal concentration (MBC) were also measured including E. coli and P. acnes. […] The MBC is the lowest concentration of antibacterial agent required to kill a particular bacterium, that is to say to reduce the viability of the initial bacterial inoculum by >99.9%. The dilutions were run in triplicate for the MIC and MBC test. At the end of the incubation, the tubes were read for the growth inhibition and then the MBC was determined by sampling all the macroscopically clear tubes and the first turbid tube in the series.\nThe results were expressed in mg/mL of extract.\nThe optimized extract was then assessed for its antimicrobial activity and more particularly in order to determine the minimum inhibitory concentration for Propionibacterium acnes (gram-positive bacteria). Methyl paraben and phenoxyethanol, as universal antimicrobial agents, were used as positive control. Due to the a higher active substance (I) content, the impact on the antimicrobial activity and more particularly on an anaerobic bacteria was evaluated."}, "[2]": {"test_system": "Aspergillus niger", "assay": "96-well microtiter plate growth inhibition assay", "assay_type": "cell-based", "conditions": "for inhibition at 200000 µg/mL (stock): 200 mg/mL sample at 2% in well (positive standard 0.4%)", "protocol": "(§1) Antimicrobial activity of the crude extracts was determined using a 96-well microtiter plate assay based on growth inhibition. The assay was performed on […] different microbial strains, chosen according to the European Pharmacopoeia (ATCC references): Staphylococcus aureus ([…]), Escherichia coli (gram-negative bacteria), Pseudomonas aeruginosa ([…]), Propionibacterium acnes (anaerobic gram-positive bacteria), Aspergillus niger (fungus) and Candida albicans (yeast).\n(§2) Samples for antimicrobial assay were prepared as follows: crude extracts were diluted at 200 mg/mL in a mixture of appropriate solvents, e.g. ethanol and water (60:40 v/v) or pure dimethylsulfoxide. After solubilization, the solutions were filtrated on 0.45 μm syringe filters.\n(§3) The assay was performed for each strain according as follows: samples (at 200 mg/mL) were first diluted to 4% in water, then to 2% and 0.2% in wells. Final concentrations were also 0.4 and 0.04% of crude extracts in wells. Each concentration was assessed in replicate with one supplementary control well containing no microbial strain. For the assay at 2%, samples were mixed up in the wells with growth medium (95 μL) and microbial suspension (representing an absorbance of 0.6 for C. albicans, S. aureus and P. aeruginosa and 40 spores/μL for A. niger). For the assay at 0.2%, samples were first diluted to 0.2% with water in the wells. Negative controls constituted of the solvent mixture used to prepare the sample solutions, and positive controls with a synthetic preservative (methyl-paraben and/or phenoxyethanol, positive standard) were also prepared. Results were also compared with those obtained using a commercial natural preservative (commercial preservative). The 96-well plates were incubated at 25° C.\n(§4) The absorbance was read for each plate at 620 nm 24, 48 and 72 hours after the beginning of the incubation to evaluate the growth of each microorganism in presence of crude extracts.\n(§5) The results were expressed as a percentage of growth inhibition by the samples for each microorganism."}, "[3]": {"test_system": "Staphylococcus aureus", "assay": "96-well microtiter plate growth inhibition assay", "assay_type": "cell-based", "conditions": "for inhibition at 200000 µg/mL (stock): 200 mg/mL sample at 2% in well (positive standard 0.4%)", "protocol": "as §1, §2, §3, §4, §5"}, "[4]": {"test_system": "Candida albicans", "assay": "96-well microtiter plate growth inhibition assay", "assay_type": "cell-based", "conditions": "for inhibition: 200 mg/mL sample at 2% in well (positive standard 0.4%)", "protocol": "as §1, §2, §3, §4, §5"}, "[5]": {"test_system": "Pseudomonas aeruginosa", "assay": "96-well microtiter plate growth inhibition assay", "assay_type": "cell-based", "conditions": "for inhibition: 200 mg/mL sample at 2% in well (positive standard 0.4%)", "protocol": "as §1, §2, §3, §4, §5"}, "[6]": {"assay_type": "physicochemical", "protocol": "The pure compound appeared to be unstable once isolated, and particularly in aqueous and acid conditions. Since antimicrobial assays were performed in water, its antimicrobial activity could not be evaluated as for crude extracts or plant fractions. Thus, the inventors tried to establish a relationship between antimicrobial activity and active substance content in crude extracts."}, "[7]": {"conditions": "48 h, read-out: Growth inhibition (%) 48 h, 2%"}, "[8]": {"conditions": "72 h, read-out: Growth inhibition (%) 72 h, 2%"}, "[9]": {"conditions": "medium inhibition at 2%, Table 2"}, "[10]": {"conditions": "24 h, read-out: Growth inhibition (%) 24 h, 2%"}}, "note": "Where two headings read alike, the source gives them in different places."}
{"smiles": "COC(=O)c1ccc(O)cc1", "note": "[Positive standard, Methylparaben]", "values": [{"measurement": "MIC", "setting": "[1]", "value": 2.53, "unit": "mg/mL"}, {"measurement": "inhibition at 200000 µg/mL (stock)", "setting": "[2]; [7]", "value": 100, "unit": "%"}, {"measurement": "inhibition at 200000 µg/mL (stock)", "setting": "[2]; [8]", "value": 100, "unit": "%"}, {"measurement": "Review", "setting": "[2]; [9]", "value": "+++ (medium inhibition greater or equal to 90%)"}, {"measurement": "inhibition at 200000 µg/mL (stock)", "setting": "[3]; [10]", "value": 80, "unit": "%"}, {"measurement": "inhibition at 200000 µg/mL (stock)", "setting": "[3]; [7]", "value": 93, "unit": "%"}, {"measurement": "Review", "setting": "[3]; [9]", "value": "++ (medium inhibition comprised between 70% and 90%)"}, {"measurement": "inhibition", "setting": "[4]; [10]", "value": 99, "unit": "%"}, {"measurement": "inhibition", "setting": "[4]; [7]", "value": 100, "unit": "%"}, {"measurement": "Review", "setting": "[4]; [9]", "value": "+++ (medium inhibition greater or equal to 90%)"}, {"measurement": "inhibition", "setting": "[5]; [7]", "value": 75, "unit": "%"}, {"measurement": "inhibition", "setting": "[5]; [8]", "value": 81, "unit": "%"}, {"measurement": "Review", "setting": "[5]; [9]", "value": "++ (medium inhibition comprised between 70% and 90%)"}]}
{"smiles": "CC#CC#C/C=C1/C=CC2(OC=CC2OC(C)=O)O1", "note": "(centres unmarked) [pure compound, 1,6-dioxaspiro[4,4]nona-2,8-dien-4-ol,7-(2,4-hexadiyn-1-ylidene)-,4-acetate]", "values": [{"measurement": "stability once isolated", "setting": "[6]", "value": "unstable"}]}
